{"source": "patent US7772192B2", "about": "“Compositions and methods for treatment of disease with acetylated disaccharides” (The Regents of the University of California, priority 2003, dated 2010)", "key": {"LS180 cells": {"tested_on": "LS180 cells", "assay": "Biodistribution of pretreated radiolabeled tumor cells in mice", "type": "in vivo", "protocol": "Biodistribution studies in mice. LS180 cells were grown for 3 days in the presence or absence of 50 μM AcGnG-NM. [^3H-methyl]thymidine (10 μCi/ml, NEN Life Sciences Products) was added to the medium, and cells were incubated for another 3 days. The cells were then harvested with EDTA, resuspended in sterile 0.9% saline, and injected (1×10^5 cells/100 μL) into the lateral tail vein of anesthetized (inhaled methoxyflurane, Janssen Pharmaceuticals) 6-8 week-old wildtype C57BL/6 mice or P-selectin deficient mice bred on the same background (Jackson Laboratory). Mayadas et al., Cell, 74: 541-554, 1993. […] The organs were digested at 55° C. overnight with Proteinase K (0.15 μg/ml, Boehringer Mannheim) in 2 mL PBS containing 1% sodium dodecyl sulfate, and homogenized by repeated passage through an 18 gauge needle. The amount of radioactive DNA in the blood and the organ extracts was then determined using an Easy DNA Kit (Invitrogen) and liquid scintillation spectrometry. The total counts in blood were estimated by assuming a total blood volume of 2 mL per mouse. Proper attention has been given to experimental ethical considerations towards animals as prescribed by the Animal Subjects Program at the University of California.\nAltered biodistribution of AcGnG-NM treated tumor cells. The lung is the major “first-pass” adhesion target for tumor cells introduced into the venous circulation. […] Radiolabeled cells were injected into the lateral tail vein of C57BL/6 mice, and allowed to circulate for 3 hours. Mice were sacrificed and DNA was extracted from organ homogenates and whole blood. The counts were normalized to the total recovered counts, which typically represented 80-90% of the injected samples. In FIG. 6A, each value represents the average recoveries from 4 wildtype mice±standard deviation from the mean. In FIG. 6B, the experiment was repeated in P-selectin deficient C57BL/6 mice that were injected with either control- or AcGnG-NM-treated LS180 cells. […]"}, "[1]": {"tested_on": "mucin-like oligosaccharides that carry sLe^X determinants", "conditions": "among several disaccharides; cited from earlier work"}, "U937 cells": {"tested_on": "U937 cells", "assay": "sLe^X expression in U937 cells", "type": "cell-based", "from_the_text": "(§1) A 4-deoxy modified acetylated disaccharide inhibits sLe^X expression in the absence of oligosaccharide priming."}, "[2]": {"tested_on": "LS180 cells adhering to TNF-α activated HMVEC", "assay": "Adhesion of tumor cells to activated human endothelial cells", "type": "cell-based", "conditions": "LS180 cells grown 5 days with disaccharide", "protocol": "Adhesion of tumor cells to activated human endothelial cells. HMVEC were added to 96-well plates (1×10^4 cells/well) in EBM-2 media (Clonetics), and allowed to grow to confluence over 2 days. The cells were activated with TNF-α (20 ng/ml; R&D Systems) for 4 hr at 37° C. Calcein labeled tumor cells, harvested after growth for 5 days in various levels of AcGnG-NM, were added to HMVEC at 2.5×10^4 cells/well in 100 μl DMEM and allowed to settle for 20 min. The wells were washed twice with cold PBS, and the extent of binding was determined by fluorimetry. In some experiments anti-E-selectin mAb (2 μg/well) was added prior to addition of tumor cells, cells were treated with sialidase (20 mU/10^6 cells), or TNF-α was omitted.\nAcGnG-NM inhibits adhesion to activated endothelia and platelets. In the circulation, tumor cells can encounter E- and P-selectins expressed on endothelial cells, P-selectin on platelets, and L-selectin on leukocytes. Since the presentation of receptors on cells may differ from their arrangement when immobilized on plastic surfaces, LS180 cells were challenged to bind to E-selectin expressed on TNF-α activated human microvascular endothelial cells (HMVEC). […] HMVEC were activated with TNF-α and overlaid with Calcein-loaded LS180 cells. The extent of adhesion was normalized to the value obtained for cells not treated with disaccharide. […]"}, "mixed oligosaccharides": {"tested_on": "mixed oligosaccharides", "assay": "Oligosaccharide priming, [6-3H]Gal incorporation", "type": "cell-based", "from_the_text": "as §1"}, "[3]": {"tested_on": "sLe^X on LS180 cell surface", "assay": "ELISA with CSLEX-1 mAb of cell-surface sLe^X", "type": "cell-based, human", "conditions": "LS180 cells"}, "LLC cells": {"tested_on": "LLC cells", "assay": "Experimental metastasis of pretreated LLC cells", "type": "in vivo, mice", "conditions": "cells treated 4 days, Es1(e) mice, 3 weeks", "protocol": "(A) LLC cells were treated in culture for 4 days with peracetylated GlcNAcβ3Gal-NM or vehicle (DMSO/propylene glycol, v/v 1:1). Single-cell suspensions (2×10^5) were injected in the tail-veins of Es1(e) mice. After 3 weeks, the mice were sacrificed and the number of tumors present on the surface of the lungs was determined by visual inspection.\nLLC cells were treated in culture for 5 days with 4-deoxy AcGnG-NM, AcGnG-NM or vehicle (DMSO:propylene glycol) and then a single-cell suspension (2×10^5 cells) was injected in the tail vein of mice. After 3 weeks, the number of tumors present on the surface of the lungs was determined."}, "[4]": {"conditions": "wildtype C57BL/6 mice, 3 hours, cells pretreated with 50 μM"}}}
{"substance": "GlcNAcβ1,3Galβ-O-naphthalenemethanol [AcGnG-NM]", "values": [{"measurement": "distribution of treated versus untreated cells", "setting": "LS180 cells; P-selectin deficient mice", "result": "no difference"}, {"measurement": "counts recovered in the blood compartment", "setting": "LS180 cells; [4]", "result": "corresponding increase"}, {"measurement": "seeding of the lungs", "setting": "LS180 cells; [4]", "result": "substantially reduced"}, {"measurement": "potency as primer", "setting": "[1]", "result": "highest potency"}, {"measurement": "sLe^X expression", "setting": "U937 cells", "result": "inhibit sLe^X expression"}, {"measurement": "adhesion to TNF-α activated HMVEC", "setting": "[2]", "result": "inhibited adhesion"}, {"measurement": "incorporation of [6-^3H]Gal into mixed oligosaccharides", "setting": "mixed oligosaccharides", "result": "stimulates"}, {"measurement": "expression of sLe^X on the cell surface", "setting": "[3]", "result": "inhibited expression of sLe^X on the cell surface in a dose-dependent manner"}, {"measurement": "tumors on the surface of the lungs", "setting": "LLC cells", "result": "significantly fewer tumor foci"}]}
